Results on one substance are retold here after patent US11331364B2, “Use for JNK inhibitor molecules for treatment of various diseases” (Xigen Inflammation Ltd., priority 2014, dated 2022).

Square brackets hold non-standard residues; d marks the D form. Ends that are not written are not given here.

In this assay the test system is Hela cells. The assay is described as follows: Internalization of transporter constructs, 24 hours, fluorescence of cell extracts. The settings on record: FIG. 6; Y in position 2. The format is cell-based. As for the experimental part:
The transporter sequences analyzed correspond to SEQ ID NOs: 52-94 plus SEQ ID NOs: 45, 47, 46, 43 and 99 (FIG. 6A) and SEQ ID NOs: 100-147 (FIG. 6B). […] Hela cells were incubated 24 hours in 96 well plate with […] of the respective transporters. The cells were then washed twice with an acidic buffer (0.2M Glycin, 0.15M NaCl, pH 3.0) and twice with PBS. Cells were broken by the addition of RIPA lysis buffer. The relative amount of internalized peptide was then determined by reading the fluorescence intensity (Fusion Alpha plate reader; PerkinElmer) of each extract followed by background subtraction.
Hela cells were incubated 24 hours in 96 well plate with […] of the r3-L-TAT-derived transporters. The cells were then washed twice with an acidic buffer (0.2M Glycin, 0.15M NaCl, pH 3.0) and twice with PBS. Cells were broken by the addition of RIPA lysis buffer. The relative amount of internalized peptide was then determined by reading the fluorescence intensity (Fusion Alpha plate reader; PerkinElmer) of each extract followed by background subtraction

Take “rYKRrQRRr ([dR]YKR[dR]QRR[dR]) [SEQ ID NO: 142]”: the transporter activity entry is recorded as “highest transporter activity”.
